Laboratory results: ChEMBL document CHEMBL4052692, “Synthesis and biological activity of peptide proline-boronic acids as proteasome inhibitors” (Bioorg Med Chem, 2017)

Experiments:
MGC-803 = assay: Cytotoxicity against human MGC803 cells after 72 hrs by MTT assay; assay type: functional, cell-based; details: MGC-803, 72 h
[1] = Cytotoxicity against human 95-D cells after 72 hrs by MTT assay; assay type: functional, cell-based
HCT-116 = assay: Cytotoxicity against human HCT116 cells after 72 hrs by MTT assay; assay type: functional, cell-based; details: HCT-116, 72 h
HL-60 = assay: Cytotoxicity against human HL60 cells after 72 hrs by MTT assay; assay type: functional, cell-based; details: HL-60, 72 h
A549 = assay: Cytotoxicity against human A549 cells after 72 hrs by MTT assay; assay type: functional, cell-based; details: A549, 72 h
MDA-MB-231 = assay: Cytotoxicity against human MDA-MB-231 cells after 72 hrs by MTT assay; assay type: functional, cell-based; details: MDA-MB-231, 72 h
[2] = biological target: T1, Proteasome Macropain subunit MB1 (Homo sapiens, UniProt P28074); assay: Inhibition of chymotrypsin-like activity of 20S proteasome in human HL60 cells using Suc-LLVYaminoluciferin as substrate pretreated for 2 hrs followed by substrate addition by […]; assay type: cell-based
T1 sequence (P28074 whole entry): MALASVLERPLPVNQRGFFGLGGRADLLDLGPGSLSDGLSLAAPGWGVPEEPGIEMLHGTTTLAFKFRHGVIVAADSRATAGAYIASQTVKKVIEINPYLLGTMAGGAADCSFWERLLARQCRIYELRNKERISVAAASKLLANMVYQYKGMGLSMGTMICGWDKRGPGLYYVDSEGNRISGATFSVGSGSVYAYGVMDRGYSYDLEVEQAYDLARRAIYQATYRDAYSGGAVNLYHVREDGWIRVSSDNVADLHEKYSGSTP

[3] = Selectivity ratio of IC50 for trypsin-like activity of 20S proteasome in human HL60 cells to IC50 for chymotrypsin-like activity of 20S proteasome in human HL60 cells
[4] = Selectivity ratio of IC50 for PGPH-like activity of 20S proteasome in human HL60 cells to IC50 for chymotrypsin-like activity of 20S proteasome in human HL60 cells

CC(C)C[C@H](NC(=O)N(C)Cc1ccccc1)C(=O)N[C@@H](Cc1ccc2ccccc2c1)C(=O)N1CCC[C@H]1B(O)O
IC50 (MGC-803): 1650 nM

O=C(N[C@@H](Cc1ccccc1)C(=O)N[C@@H](Cc1ccccc1)C(=O)N1CCC[C@H]1B(O)O)c1cnccn1
IC50 (MGC-803): 478 nM

O=C(N[C@@H](Cc1ccc2ccccc2c1)C(=O)N1CCC[C@H]1B(O)O)[C@H](Cc1ccccc1)NC(=O)N1CCc2ccccc2C1
IC50 (MGC-803): 2420 nM

CC(C)C[C@H](NC(=O)c1cnccn1)C(=O)N[C@@H](CC(C)C)C(=O)N1CCC[C@H]1B(O)O
IC50 (MGC-803): 4430 nM

O=C(N[C@@H](Cc1ccccc1)C(=O)N1CCC[C@H]1B(O)O)N1CCOCC1
IC50 (MGC-803): > 10000 nM

CC(C)C[C@H](NC(=O)c1cnccn1)C(=O)N[C@@H](Cc1ccccc1)C(=O)N1CCC[C@H]1B(O)O
IC50 (MGC-803): 27.2 nM

O=C(N[C@@H](Cc1ccc2ccccc2c1)C(=O)N1CCC[C@H]1B(O)O)OCc1ccccc1
IC50 (MGC-803): > 10000 nM

CN(Cc1ccccc1)C(=O)N[C@@H](Cc1ccc2ccccc2c1)C(=O)N1CCC[C@H]1B(O)O
IC50 (MGC-803): 7480 nM

CC(C)C[C@H](NC(=O)[C@H](Cc1ccccc1)NC(=O)c1cnccn1)B(O)O [BORTEZOMIB]
IC50 (MGC-803): 8 to 13.3 nM | IC50 [1]: 38 nM | IC50 (HCT-116): 1 nM | IC50 (HL-60): 8 nM

O=C(N[C@@H](Cc1ccccc1)C(=O)N1CCC[C@H]1B(O)O)[C@H](Cc1ccccc1)NC(=O)N1CCc2ccccc2C1
IC50 (MGC-803): 4170 nM

CC(C)C[C@H](NC(=O)OCc1ccccc1)C(=O)N[C@@H](Cc1ccc2ccccc2c1)C(=O)N1CCC[C@H]1B(O)O
IC50 (A549): 5990 nM | IC50 (MGC-803): 9.76 to 10 nM | IC50 [1]: 12 nM | IC50 (HCT-116): 69 nM | IC50 (MDA-MB-231): 7 nM | IC50 (HL-60): < 1 nM | IC50 [2]: 18 nM | Ratio IC50 [3]: 92.2 | Ratio IC50 [4]: 69.4

O=C(N[C@@H](Cc1ccccc1)C(=O)N1CCC[C@H]1B(O)O)N1CCc2ccccc2C1
IC50 (MGC-803): > 10000 nM

CC(C)C[C@H](NC(=O)N1CCc2ccccc2C1)C(=O)N[C@@H](Cc1ccc2ccccc2c1)C(=O)N1CCC[C@H]1B(O)O
IC50 (MGC-803): 1430 nM

CC(C)C[C@H](NC(=O)OCc1ccccc1)C(=O)N[C@@H](CC(C)C)C(=O)N1CCC[C@H]1B(O)O
IC50 (MGC-803): 10.9 nM

O=C(N[C@@H](Cc1ccc2ccccc2c1)C(=O)N1CCC[C@H]1B(O)O)N1CCc2ccccc2C1
IC50 (MGC-803): 5360 nM

O=C(N[C@@H](Cc1ccccc1)C(=O)N[C@@H](Cc1ccc2ccccc2c1)C(=O)N1CCC[C@H]1B(O)O)c1cnccn1
IC50 (MGC-803): 110 nM

O=C(N[C@@H](Cc1ccccc1)C(=O)N[C@@H](Cc1ccc2ccccc2c1)C(=O)N1CCC[C@H]1B(O)O)OCc1ccccc1
IC50 (MGC-803): 150 nM

O=C(N[C@@H](Cc1ccc(O)cc1)C(=O)N1CCC[C@H]1B(O)O)[C@H](Cc1ccccc1)NC(=O)N1CCc2ccccc2C1
IC50 (MGC-803): 7640 nM

O=C(N[C@@H](Cc1ccccc1)C(=O)N1CCC[C@H]1B(O)O)c1cnccn1
IC50 (MGC-803): > 10000 nM

CC(C)C[C@H](NC(=O)c1cnccn1)C(=O)N[C@@H](Cc1ccc2ccccc2c1)C(=O)N1CCC[C@H]1B(O)O
IC50 (MGC-803): 29.6 nM

CC(C)C[C@H](NC(=O)[C@H](Cc1ccccc1)NC(=O)N1CCc2ccccc2C1)C(=O)N1CCC[C@H]1B(O)O
IC50 (MGC-803): > 10000 nM
